Test results reported in patent publication US8318781B2, “G-protein-conjugated receptor agonist” (Japan Science and Technology Agency, priority 2007, dated 2012).

Tests used:
Assay type in all cases: cell-based
[1] = target: T1, human GPR40 (hGPR40) (Homo sapiens, UniProt O14842); test: Determination of intracellular Ca2+ concentration (FLIPR), cell line TXGPR40; conditions: for EC50 / [Ca^2+]/GPR40 10 μM (ratio vs. LA): TXGPR40 cells; for EC50: maximum fluorescence intensity vs ligand concentration, read-out: [Ca^2+]/GPR40 pEC50 (converted); for agonistic activity for GPR40 (in words): cells in which GPR40 has been transgenically expressed; for [Ca^2+]/GPR40 10 μM (ratio vs. LA): relative fluorescence intensity vs LA at 10 μM
T1 construct: expressed in transfected cells; doxycycline-inducible expression vector

[2] = target: T2, human GPR120 (hGPR120) (Homo sapiens, UniProt Q5NUL3); test: Determination of intracellular Ca2+ concentration (FLIPR), cell line TXGPR120; conditions: for selectivity between GPR40 and GPR120 (in words), from Tables 3 and 4: GPR40 versus GPR120, Ca2+ and ERK results; for EC50 / [Ca^2+]/GPR120 10 μM (ratio vs. LA): TXGPR120 cells; for EC50: maximum fluorescence intensity vs ligand concentration, read-out: [Ca^2+]/GPR120 pEC50 (converted); for agonistic activity for hGPR120 (in words): cells in which GPR120 has been transgenically expressed; for [Ca^2+]/GPR120 10 μM (ratio vs. LA): relative fluorescence intensity vs LA at 10 μM
T2 construct: expressed in transfected cells; doxycycline-inducible expression vector
T2 sequence (Q5NUL3 1-361): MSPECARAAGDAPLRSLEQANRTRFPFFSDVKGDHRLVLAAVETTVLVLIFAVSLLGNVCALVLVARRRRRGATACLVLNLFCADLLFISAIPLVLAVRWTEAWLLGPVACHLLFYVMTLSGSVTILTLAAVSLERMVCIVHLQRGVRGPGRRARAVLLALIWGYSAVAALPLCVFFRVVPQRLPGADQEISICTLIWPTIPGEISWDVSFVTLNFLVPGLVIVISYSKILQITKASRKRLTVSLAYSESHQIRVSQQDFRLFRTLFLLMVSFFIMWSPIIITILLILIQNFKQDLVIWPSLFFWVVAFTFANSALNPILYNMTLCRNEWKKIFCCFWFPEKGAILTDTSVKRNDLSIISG

[3] = target: T2, human GPR120 (hGPR120); test: Determination of intracellular Ca2+ concentration (FLIPR), cell line GPR120/Flp-in; conditions: GPR120/Flp-in cells; for EC50: maximum fluorescence intensity vs ligand concentration, read-out: [Ca^2+]/GPR120/Flp-In pEC50 (converted); for [Ca^2+]/GPR120/Flp-In 10 μM (ratio vs. LA): relative fluorescence intensity vs LA at 10 μM

T1 sequence (O14842 whole entry): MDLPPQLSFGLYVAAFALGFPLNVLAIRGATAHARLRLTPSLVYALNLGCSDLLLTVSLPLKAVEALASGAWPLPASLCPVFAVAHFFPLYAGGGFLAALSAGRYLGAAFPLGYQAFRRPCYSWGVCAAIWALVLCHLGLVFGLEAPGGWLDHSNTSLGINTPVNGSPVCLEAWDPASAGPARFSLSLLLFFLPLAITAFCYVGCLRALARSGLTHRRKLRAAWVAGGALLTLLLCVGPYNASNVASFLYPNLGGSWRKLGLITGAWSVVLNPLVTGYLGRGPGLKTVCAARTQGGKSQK

| EC50 [1] [µM] | agonistic activity for GPR40 (in words) [1] | [Ca^2+]/GPR40 10 μM (ratio vs. LA) [1] | EC50 [2] [µM] | agonistic activity for hGPR120 (in words) [2] | [Ca^2+]/GPR120 10 μM (ratio vs. LA) [2] | EC50 [3] [µM] | [Ca^2+]/GPR120/Flp-In 10 μM (ratio vs. LA) [3] | SMILES | selectivity between GPR40 and GPR120 (in words), from Tables 3 and 4 [2] |
| --- | --- | --- | --- | --- | --- | --- | --- | --- | --- |
| 21.4 | showed a specific reactivity | 0.30 | 5.25 | exhibit a similar effect | 1.60 | 1.66 | 1.06 | O=C(O)CCCc1ccc(OCCN(c2ccccc2)c2nccs2)cc1 [NCG46] | acting relatively mildly for GPR40 but acting strongly for GPR120 |
| 24 | showed a specific reactivity | 0.07 | 15.8 | exhibit a similar effect | 0.66 | 2.4 | 0.92 | CN(C)c1ccc(N(CCOc2ccc(CCCC(=O)O)cc2)c2ccccn2)cc1 [NCG54] | acting relatively mildly for GPR40 but acting strongly for GPR120 |
